Laboratory results published in patent publication US12410179B2, “Modulators of TNF alpha activity and uses thereof” (RayThera, Inc., priority 2023, dated 2025).
Values belong to the compound of their own block, whether it stands above or below them.

Legend:
[1] = Caco-2 assay (permeability); format: in vitro ADME; details: human, Caco-2, pH 7.4; for Papp A→B at 2 h, 5 μM: apical to basolateral; for efflux ratio at 2 h, 5 μM: read-out: Caco-2, ER (efflux ratio)
Description: Cells were cultivated for 14-18 days in a cell culture incubator at 37° C., 5% CO2, 95% relative humidity. Cell culture medium was replaced every other day, beginning no later than 24 hours after initial plating.
10 mM stock solutions of test compounds were prepared in DMSO. The stock solutions of positive controls were prepared in DMSO at the concentration of 10 mM.
1) Medium was removed from the reservoir and each Transwell insert and replaced with prewarmed fresh culture medium.
2) Transepithelial electrical resistance (TEER) across the monolayer was measured using Millicell Epithelial Volt-Ohm measuring system (Millipore, USA).
3) The Plate was returned to the incubator once the measurement was done.
1) The Caco-2 plate was removed from the incubator and washed twice with pre-warmed HBSS (10 mM HEPES, pH 7.4), and then incubated at 37° C. for 30 minutes.
The final concentration of DMSO in the incubation system was 0.5%.
3) To determine the rate of drug transport in the apical to basolateral direction.
4) To determine the rate of drug transport in the basolateral to apical direction.
5) The plates were incubated at 37° C. for 2 hours.
6) At the end of the incubation, 50 μL samples from donor sides (apical compartment for Ap→Bl flux, and basolateral compartment for Bl→Ap) and receiver sides (basolateral compartment for Ap→Bl flux, and apical compartment for Bl→Ap) were transferred to wells of a new 96-well plate, followed by the addition of 4 volume of cold methanol containing appropriate internal standards (IS). Samples were vortexed for 5 minutes and then centrifuged at 3,220 g for 40 minutes. An aliquot of 100 μL of the supernatant was mixed with an appropriate volume of ultra-pure water before LC-MS/MS analysis.
100 μL of the Lucifer yellow solution was added to each Transwell insert (apical compartment), followed by filling the wells in the receiver plate (basolateral compartment) with 300 μL of HBSS (10 mM HEPES, pH 7.4).

[2] = molecular target: T1, TNFα (Homo sapiens, UniProt P01375); test: HEK-Blue hTNFα reporter assay; format: cell-based; set-up: purchased R&D biosystem (R&D Systems) 210-TA-020/CF; details: HEK-Blue hTNFα reporter cells; for Emax: read-out: TNFα reporter, Emax
T1 sequence (P01375 77-233 limits assumed): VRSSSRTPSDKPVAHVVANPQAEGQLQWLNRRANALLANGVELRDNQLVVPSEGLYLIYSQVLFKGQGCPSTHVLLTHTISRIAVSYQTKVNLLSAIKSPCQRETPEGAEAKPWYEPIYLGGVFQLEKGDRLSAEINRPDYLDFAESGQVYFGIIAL
How it was run: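 IC50 from 4-parameter regression of % inhibition, with OD620 of secreted SEAP (QUANTI-Blue, 1 h) referenced to cells with and without hTNFα. HEK-Blue TNFα reporter cells were exposed 24 h to compound premixed 1 h with hTNFα ([…]).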

[3] = molecular target: T1, TNFα; test: Human dermal fibroblast cell potency assay (IL-8 HTRF); format: cell-based; set-up: purchased R&D biosystem (R&D Systems) 210-TA-020/CF; details: human dermal fibroblasts, hTNFα 10 ng/mL, 24 h; for Emax: read-out: HDF_IL-8, Emax; for IC50: read-out: HDF_IL-8, IC50
Description: The potency of compounds was examined in Human dermal fibroblast cells (HDF). […] When used for assay, 40 μL of HDF suspension (2000 cell/well) was seeded into each well of 384-well plates (Corning 3764). After overnight culture, replenish fresh culture medium with 5% fetal bovine serum. A serial dilution of work solution of tested compound was made in DMSO with 1000× of final concentration, and 50 nL of compound DMSO solution was transferred into another set of 384-well plates by Echo, and incubated with 10 μL of recombinant hTNFα (R&D biosystem, Cat #210-TA-020/CF) for 1 h at 37° C. The compound/hTNFα mixture was then transferred to the 384-plate containing HDF, and then incubated at 37° C. with 5% CO2 for 24 h. The final concentration of hTNFα is 10 ng/mL.
After incubation, 16 μL of induced cell supernatant was transferred to a new 384-well Optiplate well to mix with 4 μL of IL-8 antibody cocktail (Revvity #62HIL08PEH). After overnight incubation, the plate was read using EnSight™ Multimode Microplate Reader (Perkin Elmer) for HTRF signal.
The percentage of inhibition was calculated by the following formula: % inhibition=(positive control−Sample)/(positive control−negative control)*100
Positive control: HTRF reading of cells with hTNFα stimulation.
Negative control: HTRF reading of cells without hTNFα stimulation.
Sample: HTRF reading of cells with compound at specific concentration and hTNFα stimulation
The % inhibition was plotted against compound concentration in logarithmic scale and the IC50 was rendered using 4-parameter nonlinear regression (GraphPad Prism).

[4] = molecular target: T1, TNFα; test: TNFα human whole blood screening assay (CD11b on granulocytes, zymosan challenge); format: cell-based; set-up: a human whole blood assay driven by endogenously expressed TNFα; from tissue; host or cells: human whole blood; details: human whole blood IC50 multiplied by unbound fraction from plasma protein binding; read-out: CD11b in hWB, free IC50
Description: The compounds according to the Examples were assessed in a human whole blood assay driven by endogenously expressed TNFα by measuring the expression of CD11b on granulocytes in human whole blood challenged with zymosan. A serial diluted compound was pre-incubated with human whole blood for 1 h at 37° C./5% CO2. Zymosan (Invivogen, Tlrl-zyn) was added (final assay concentration […] in a total volume of 100 μl) with thorough mixing and incubated for 3 h at 37° C./5% CO2. The samples were then incubated with 10 μl antibody cocktail containing APC-conjugated anti-human CD45 antibody (Biolegend, cat #304012) and PE-conjugated anti-human CD11b antibody (Biolegend, cat #101208) for 30 min at 4° C. The blood was fixed/lysed for 10-15 min at 37° C. using FACS/lysing solution (BD sciences, cat #558049) and analyzed with CytoFlex S (Beckman Coulter). The number of single cells (SSC-A, SSC—W) positive for CD45 and expressing CD11b was determined using FlowJo software (BD Biosciences). Inhibition of CD11b activation was calculated against DMSO control. […]
A calculated IC50 for the free compound (free IC50) that considers the extent of fraction unbound in blood was determined by multiplying the IC50 generated from the human whole blood screening assay by the unbound fraction, generated from the plasma protein binding assay.

[5] = system: human induced pluripotent stem cell-derived cardiomyocytes (hiPSC-CMs); details: 10 μM
[6] = SEAP readout, read-out: IC50 Range

Papp A→B at 2 h, 5 μM [1]: 1.7 ×10⁻⁶ cm/s
efflux ratio at 2 h, 5 μM [1]: 22.8
IC50 [2, 6]: < 25 nM
Emax [2]: 89%
IC50 ([2]; read-out: TNFα reporter, IC50): 3.8 nM
Structure (SMILES): CN1C(=O)c2cccc(OC(F)F)c2[C@H]2C[C@@H]1c1nn3ccc(-c4ccc(P(C)(C)=O)nc4)cc3c12 [Example 20]

IC50 [2, 6]: < 25 nM
Emax [2]: 95%
IC50 ([2]; read-out: TNFα reporter, IC50): 4.1 nM
Emax [3]: 97%
IC50 [3]: 2.8 nM
IC50 [4]: 2.1 nM
Structure (SMILES): CN1C(=O)c2cccc(OC(F)F)c2[C@H]2C[C@@H]1c1nn3ccc(-c4cnc(C5(N)CCC5)nc4)cc3c12 [Example 15]

Papp A→B at 2 h, 5 μM [1]: 0.6 ×10⁻⁶ cm/s
efflux ratio at 2 h, 5 μM [1]: 47.5
Emax [2]: 82%
IC50 ([2]; read-out: TNFα reporter, IC50): 7.9 nM
Structure (SMILES): CN1C(=O)c2cccc(OC(F)F)c2[C@H]2C[C@@H]1c1nc3ccc(-c4ccc(P(C)(C)=O)nc4)cc3n12 [Comp. Ex #4, reference compound]

Cardiomyocytes FPDc prolong. [5]: > 20%
EAD (early afterdepolarization) [5]: EAD
Emax [2]: 96%
IC50 ([2]; read-out: TNFα reporter, IC50): 4.8 nM
Emax [3]: 93%
IC50 [3]: 6.7 nM
IC50 [4]: 9.3 nM
Structure (SMILES): CN1C(=O)c2cccc(OC(F)F)c2[C@H]2C[C@@H]1c1nc3ccc(-c4cnc(C5(N)CCC5)nc4)cc3n12 [Comp. Ex #1, reference compound]

IC50 [2, 6]: < 25 nM
Structure (SMILES): CN1C(=O)c2cccc(OC(F)F)c2[C@H]2C[C@@H]1c1nn3ccc(-c4cnc(C(C)(C)N)nc4)nc3c12 [Example 295]

IC50 [2, 6]: < 25 nM
Structure (SMILES): [2H]C([2H])([2H])N1C(=O)c2cccc(OC(F)F)c2[C@H]2C[C@@H]1c1nn3ccc(-c4cnc(C5(N)CCC5)c(F)c4)nc3c12 [Example 221]

IC50 [2, 6]: < 25 nM
Structure (SMILES): [2H]C([2H])([2H])N1C(=O)c2cccc(OC(F)F)c2[C@H]2C[C@@H]1c1nn3ccc(-c4cnc5c(c4)CC[C@@]5(C)N)cc3c12 [Example 328]

IC50 [2, 6]: < 25 nM
Structure (SMILES): CN1C(=O)c2cccc(OC(F)F)c2[C@H]2C[C@@H]1c1nn3ccc(-c4cnc([C@]5(N)C[C@H](O)C5)c(F)c4)cc3c12 [Example 169]

IC50 [2, 6]: < 25 nM
Structure (SMILES): [2H]C([2H])([2H])N1C(=O)c2cccc(OC(F)F)c2[C@H]2C[C@@H]1c1nn3ccc(-c4cnc(C(C)(C)N)c(F)c4)nc3c12 [Example 326]

IC50 [2, 6]: < 25 nM
Structure (SMILES): CN1C(=O)c2cccc(OC(F)F)c2[C@H]2C[C@@H]1c1nn3ccc(-c4cnc([C@H](O)C(C)(C)O)nc4)cc3c12 [Example 133]

IC50 [2, 6]: < 25 nM
Structure (SMILES): [2H]C([2H])([2H])N1C(=O)c2cccc(OC(F)F)c2[C@H]2C[C@@H]1c1nn3cc(C)c(-c4cnc([C@]5(N)C[C@@](C)(O)C5)nc4)nc3c12 [Example 215]

IC50 [2, 6]: < 25 nM
Structure (SMILES): CN1C(=O)c2cccc(OC(F)F)c2[C@H]2C[C@@H]1c1nn3ccc(-c4cnc([C@@H](O)C(F)F)nc4)cc3c12 [Example 106]

IC50 [2, 6]: < 25 nM
Structure (SMILES): CN1C(=O)c2cccc(OC(F)F)c2[C@H]2C[C@@H]1c1nn3ccc(-c4cnc(N5CCOCC5)nc4)cc3c12 [Example 158]

IC50 [2, 6]: < 25 nM
Structure (SMILES): O=C1N[C@@H]2C[C@H](c3c(OC(F)F)cccc31)c1c2nn2ccc(-c3cnc(C4(O)CCC4)nc3)cc12 [Example 140]

IC50 [2, 6]: < 25 nM
Structure (SMILES): C[C@]1(O)C[C@](N)(c2ncc(-c3nc4c5c(nn4cc3F)[C@H]3C[C@@H]5c4c(OC(F)F)cccc4C(=O)N3)cn2)C1 [Example 223]

IC50 [2, 6]: < 25 nM
Structure (SMILES): CN1C(=O)c2cccc(OC(F)F)c2[C@H]2C[C@@H]1c1nn3ccc(-c4cnc([C@](O)(CC#N)C(F)F)nc4)cc3c12 [Example 78]

IC50 [2, 6]: < 25 nM
Structure (SMILES): CC(=O)N1CCN(c2ncc(-c3ccn4nc5c(c4c3)[C@@H]3C[C@H]5N(C)C(=O)c4cccc(OC(F)F)c43)cn2)CC1 [Example 148]
